One data set has as its target T1, PI3K gamma (Mus musculus, UniProt Q9JHG7).
T1 construct: endogenous in cells; host or cells: RAW264.7
The data set can be described thus: Raw264.7 cell assay: phosphorylation of AKT in C5a stimulated RAW264.7 cells (AlphaLISA). It counts as cell-based. As to conditions: pAKT, read-out: PI3K gamma Raw264.7 cell (nM) cellular activity (IC50). The protocol: (§1) This study aims to determine the inhibitory effect of compounds on PI3K gamma and PI3K delta in corresponding cell based assays. PI3K gamma activity was reflected by phosphorylation of AKT in C5a stimulated RAW264.7 cells, and PI3K delta activity was reflected by phosphorylation of AKT in anti-IgM stimulated Raji cells. Phosphorylation of AKT in cells was determined using AlphaLISA technology from PerkinElmer.
Raw264.7 cell assay: Prepare Passage 15 Raw264.7 cell and add 6 μL of 30K cells per well in 384-well plate by multidrop. Centrifuge at 500 RPM for 30 s and incubate for 2 hours at 37° C., 5% CO2. Add 30 nL compound by echo and incubate for 30 min at 37° C., 5% CO2. […] Add 2 μL of 5× lysis buffer by multidrop, incubate for 10 min on a plate shaker. Add 5 μL acceptor mix provided in the kit, centrifuge at 1000 RPM for 1 min. Add 5 μL donor mix provided in the kit, centrifuge at 1000 RPM for 1 min and incubate in dark for 2 hours at 25° C. Read AlphaLISA signal on Envision.
Y=Bottom+(Top−Bottom)/(1+10^((Log IC50−X)*Hill Slope)) X: Log of cpd concentration Y: Inhibition

A further data set addresses PI3Kγ (Homo sapiens, UniProt P48736). The experiment in a line: ADP-Glo luminescent assay, enzymatic activity of PI3K gamma. Type of data set: biochemical. As to conditions: ATP 25 μM; read-out: PI3K gamma (nM) inhibitory activity (IC50). On the procedure: The compounds would be tested from 1 or 10 μM, 3-fold dilution for 10 doses, in duplicate.
(§2) Compound preparation: Dilute a compound to 100× of the final desired highest inhibitor concentration in reaction by 100% DMSO. Transfer 100 μl of this compound dilution to a well in a 96-well plate and serially dilute it with DMSO for a total of 10 concentrations.
Kinase reaction: Prepare a solution of PI3K in 1× kinase buffer at 2-fold the final concentration of each reagent in the assay. Control wells contain 1× kinase buffer without enzyme. Prepare substrate solution of PIP2 substrate and ATP in 1× kinase reaction buffer at 2-fold of the final concentration. Add concentration substrate solution to each well to the final concentration. Cover the assay plate, shake to mix, and incubate at room temperature for 1 hour. Add 5 μl of ADP-Glo reagent to each well to stop the reaction. […] Add 10 ul Kinase Detection Reagent to each well, shake 1 min, equilibrate for 30 min before reading on a luminescence plate reader.
(§3) Data Analysis: Convert RLU values to percent inhibition values as Percent inhibition=(max−sample RLU)/(max−min)*100. “min”—no enzyme control; “max”—DMSO control. Fit the data in XLFit excel add-in version 5.4.0.8 to obtain IC50 values. Y=Bottom+(Top−Bottom)/(1+(IC50/X)^HillSlope).

Data set [1] is described as follows: Kinetic solubility test in PBS pH7.4. It counts as physicochemical. As to conditions: aqueous buffer, kinetic from dmso stock; PBS pH 7.4, 25° C., 2 hours. The protocol: 15 μL of stock solution (10 mM) was placed in order into their proper 96-well rack. 485 μL of PBS pH7.4 was added into each vial of the cap-less Solubility Sample plate. The assay was performed in singlet. Add one stir stick to each vial and seal using a molded PTFE/Silicone plug. […] After completion of the 2 hours, the samples from the Solubility Sample plate were transferred into the filter plate. all the samples were filtered using the Vacuum Manifold. Aliquot of 5 μL was taken from the filtrate followed by addition of 495 μL of a mixture of H2O and acetonitrile containing internal standard (1:1). A certain proportion of ultrapure water was used to dilute the diluent according to the peak shape. The dilution factor was changed according to the solubility values and the LC-MS signal response.
Preparation of 3 μM standards (STD): From the 10 mM DMSO STD plate, 6 μL was transferred into the remaining empty plate, and then 194 μL of DMSO was added to that plate to have a STD concentration of 300 μM. From the 300 μM DMSO STD plate, 5 μL was transferred into the remaining empty plate, and then 495 μL of a mixture of H2O and acetonitrile containing internal standard (1:1) was added to that plate to have a final STD concentration of 3 μM. A certain proportion of ultrapure water was used to dilute the diluent according to the peak shape. The concentrations of the standard samples were changed according to the LC-MS signal response.
Procedure for sample analysis: The plate was placed into the well plate autosampler. The samples were evaluated by LC-MS/MS analysis.
Data analysis: All calculations were carried out using Microsoft Excel.
The filtrate was analyzed and quantified against a standard of known concentration using LC coupled with mass spectral peak identification and quantitation. Solubility values of the test compound and control compound were calculated as follows:
[formula] • Any value of the compounds that was not within the specified limits was rejected and the experiment was repeated.

Another data set concerns the target PI3Kδ (Homo sapiens, UniProt O00329). The experiment in a line: ADP-Glo luminescent assay, enzymatic activity of PI3K delta. It counts as biochemical. As to conditions: ATP 25 μM; read-out: PI3K delta (nM) inhibitory activity (IC50). On the procedure: Enzymatic activity of PI3K isoforms: Enzymatic activity of the class I PI3K isoforms in the presence of the compounds of Table 1 was measured using ADP-Glo luminescent assay against PI3Kα, PI3Kβ, PI3Kδ and PI3Kγ with ATP concentration at 25 μM. […] The compounds would be tested from 1 or 10 μM, 3-fold dilution for 10 doses, in duplicate.
as §2
(§4) Kinase reaction: Prepare a solution of PI3K in 1× kinase buffer at 2-fold the final concentration of each reagent in the assay. Control wells contain 1× kinase buffer without enzyme. Prepare substrate solution of PIP2 substrate and ATP in 1× kinase reaction buffer at 2-fold of the final concentration. Add concentration substrate solution to each well to the final concentration. Cover the assay plate, shake to mix, and incubate at room temperature for 1 hour. Add 5 μl of ADP-Glo reagent to each well to stop the reaction. Mix briefly with a quick spin, shake slowly on the shaker for 120 min. Add 10 ul Kinase Detection Reagent to each well, shake 1 min, equilibrate for 30 min before reading on a luminescence plate reader.
as §3

For a further data set, the target named is T2, PI3K delta (Homo sapiens, UniProt O00329).
T2 construct: endogenous in cells; host or cells: Raji
The experiment in a line: Raji cell assay: phosphorylation of AKT in anti-IgM stimulated Raji cells (AlphaLISA). It counts as cell-based. As to conditions: pAKT, read-out: PI3K delta Raji cell (nM) cellular activity (IC50). The protocol:
as §1
Raji cell assay: Prepare Passage 11 Raji cell and add 6 μL of 60K cells per well in 384-well plate. Centrifuge at 500 RPM for 30 s and incubate for 2 hours at 37° C., 5% CO2. Add 30 nL compound by Echo and incubate for 30 min at 37° C. Add 2 μL of IgM (4×, 12 μg/mL) per well, centrifuge at 500 RPM for 30 s and incubate for 10 min at 37° C. Add 2 μL of 5× lysis buffer by Multidrop. Shake 10 min on a plate shaker. Add 5 μL acceptor mix provided in the kit. Centrifuge at 1000 RPM for 1 min. Add 5 μL donor mix provided in the kit. Centrifuge at 1000 RPM for 1 min. Then incubate for 2 hours at 25° C., keep the plate in dark. Read AlphaLISA signal on Envision.
Data analysis: Fit the cpd IC50 from non-linear regression equation. Y=Bottom+(Top−Bottom)/(1+10^((Log IC50−X)*Hill Slope)) X: Log of cpd concentration Y: Inhibition

The next data set concerns the target PI3Kβ (Homo sapiens, UniProt P42338). The data set can be described thus: ADP-Glo luminescent assay, enzymatic activity of PI3K beta. It counts as biochemical. As to conditions: ATP 25 μM; read-out: PI3K beta (nM) inhibitory activity (IC50). On the procedure: (§5) Enzymatic activity of PI3K isoforms: Enzymatic activity of the class I PI3K isoforms in the presence of the compounds of Table 1 was measured using ADP-Glo luminescent assay against PI3Kα, PI3Kβ, PI3Kδ and PI3Kγ with ATP concentration at 25 μM. IPI-549 was used as the reference compound. The compounds would be tested from 1 or 10 μM, 3-fold dilution for 10 doses, in duplicate.
as §2, §4, §3

The next data set concerns the target PI3Kα (Homo sapiens, UniProt P42336). The experiment in a line: ADP-Glo luminescent assay, enzymatic activity of PI3K alpha. Type of data set: biochemical. As to conditions: ATP 25 μM; read-out: PI3K alpha (nM) inhibitory activity (IC50). The protocol:
as §5, §2, §4, §3

In brackets after ≈: the same amount, converted by molar mass.

T1 sequence (Q9JHG7 whole entry): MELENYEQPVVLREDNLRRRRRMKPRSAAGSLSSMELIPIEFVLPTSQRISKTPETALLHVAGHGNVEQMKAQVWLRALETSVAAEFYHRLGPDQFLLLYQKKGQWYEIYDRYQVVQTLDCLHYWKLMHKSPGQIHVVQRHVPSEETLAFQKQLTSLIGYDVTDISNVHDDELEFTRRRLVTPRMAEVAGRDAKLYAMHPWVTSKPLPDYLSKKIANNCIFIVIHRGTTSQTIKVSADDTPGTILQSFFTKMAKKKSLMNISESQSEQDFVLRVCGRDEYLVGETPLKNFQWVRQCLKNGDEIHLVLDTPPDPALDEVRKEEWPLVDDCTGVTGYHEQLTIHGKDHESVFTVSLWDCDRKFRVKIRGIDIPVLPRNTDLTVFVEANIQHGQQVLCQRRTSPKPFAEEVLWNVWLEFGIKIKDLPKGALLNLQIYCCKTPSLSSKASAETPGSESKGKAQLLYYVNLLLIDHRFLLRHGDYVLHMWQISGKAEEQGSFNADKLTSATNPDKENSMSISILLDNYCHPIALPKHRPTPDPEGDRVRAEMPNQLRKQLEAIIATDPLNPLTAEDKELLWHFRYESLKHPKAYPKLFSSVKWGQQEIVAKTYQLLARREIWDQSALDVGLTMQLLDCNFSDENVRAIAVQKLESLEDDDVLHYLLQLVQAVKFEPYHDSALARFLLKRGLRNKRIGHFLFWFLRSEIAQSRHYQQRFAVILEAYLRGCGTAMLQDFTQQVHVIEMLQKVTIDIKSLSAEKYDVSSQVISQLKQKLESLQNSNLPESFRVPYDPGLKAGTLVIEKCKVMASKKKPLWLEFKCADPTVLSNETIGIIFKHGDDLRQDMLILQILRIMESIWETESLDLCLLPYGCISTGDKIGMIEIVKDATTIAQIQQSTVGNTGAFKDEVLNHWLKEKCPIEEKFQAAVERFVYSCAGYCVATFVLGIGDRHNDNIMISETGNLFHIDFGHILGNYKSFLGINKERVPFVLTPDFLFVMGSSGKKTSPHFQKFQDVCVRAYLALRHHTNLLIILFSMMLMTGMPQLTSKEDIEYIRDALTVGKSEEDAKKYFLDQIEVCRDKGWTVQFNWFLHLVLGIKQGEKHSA
T1 sequence (Q5SW28 whole entry partner): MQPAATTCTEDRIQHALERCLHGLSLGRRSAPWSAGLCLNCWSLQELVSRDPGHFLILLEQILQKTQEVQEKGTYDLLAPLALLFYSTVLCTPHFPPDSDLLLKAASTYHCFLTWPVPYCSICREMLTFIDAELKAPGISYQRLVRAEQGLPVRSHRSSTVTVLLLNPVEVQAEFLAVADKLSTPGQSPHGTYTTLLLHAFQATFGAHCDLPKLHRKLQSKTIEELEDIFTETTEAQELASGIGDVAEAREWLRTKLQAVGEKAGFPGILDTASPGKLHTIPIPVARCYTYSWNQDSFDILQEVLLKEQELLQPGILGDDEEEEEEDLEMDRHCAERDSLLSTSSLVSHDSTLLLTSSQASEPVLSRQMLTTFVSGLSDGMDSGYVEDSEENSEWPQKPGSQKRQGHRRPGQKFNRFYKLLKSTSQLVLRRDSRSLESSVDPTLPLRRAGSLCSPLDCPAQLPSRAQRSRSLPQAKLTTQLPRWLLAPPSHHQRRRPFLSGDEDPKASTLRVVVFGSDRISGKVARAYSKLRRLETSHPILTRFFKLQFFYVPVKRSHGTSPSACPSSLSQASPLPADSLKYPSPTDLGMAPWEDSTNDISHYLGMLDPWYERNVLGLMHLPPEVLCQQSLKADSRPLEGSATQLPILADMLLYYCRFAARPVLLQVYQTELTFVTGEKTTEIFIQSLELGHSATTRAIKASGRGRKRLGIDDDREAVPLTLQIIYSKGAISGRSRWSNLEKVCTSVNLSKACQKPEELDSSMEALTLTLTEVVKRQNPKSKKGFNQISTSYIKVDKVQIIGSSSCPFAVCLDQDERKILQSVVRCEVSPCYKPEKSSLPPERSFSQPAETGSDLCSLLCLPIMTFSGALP
Chain of PI3Kγ (P48736 whole entry, species assumed): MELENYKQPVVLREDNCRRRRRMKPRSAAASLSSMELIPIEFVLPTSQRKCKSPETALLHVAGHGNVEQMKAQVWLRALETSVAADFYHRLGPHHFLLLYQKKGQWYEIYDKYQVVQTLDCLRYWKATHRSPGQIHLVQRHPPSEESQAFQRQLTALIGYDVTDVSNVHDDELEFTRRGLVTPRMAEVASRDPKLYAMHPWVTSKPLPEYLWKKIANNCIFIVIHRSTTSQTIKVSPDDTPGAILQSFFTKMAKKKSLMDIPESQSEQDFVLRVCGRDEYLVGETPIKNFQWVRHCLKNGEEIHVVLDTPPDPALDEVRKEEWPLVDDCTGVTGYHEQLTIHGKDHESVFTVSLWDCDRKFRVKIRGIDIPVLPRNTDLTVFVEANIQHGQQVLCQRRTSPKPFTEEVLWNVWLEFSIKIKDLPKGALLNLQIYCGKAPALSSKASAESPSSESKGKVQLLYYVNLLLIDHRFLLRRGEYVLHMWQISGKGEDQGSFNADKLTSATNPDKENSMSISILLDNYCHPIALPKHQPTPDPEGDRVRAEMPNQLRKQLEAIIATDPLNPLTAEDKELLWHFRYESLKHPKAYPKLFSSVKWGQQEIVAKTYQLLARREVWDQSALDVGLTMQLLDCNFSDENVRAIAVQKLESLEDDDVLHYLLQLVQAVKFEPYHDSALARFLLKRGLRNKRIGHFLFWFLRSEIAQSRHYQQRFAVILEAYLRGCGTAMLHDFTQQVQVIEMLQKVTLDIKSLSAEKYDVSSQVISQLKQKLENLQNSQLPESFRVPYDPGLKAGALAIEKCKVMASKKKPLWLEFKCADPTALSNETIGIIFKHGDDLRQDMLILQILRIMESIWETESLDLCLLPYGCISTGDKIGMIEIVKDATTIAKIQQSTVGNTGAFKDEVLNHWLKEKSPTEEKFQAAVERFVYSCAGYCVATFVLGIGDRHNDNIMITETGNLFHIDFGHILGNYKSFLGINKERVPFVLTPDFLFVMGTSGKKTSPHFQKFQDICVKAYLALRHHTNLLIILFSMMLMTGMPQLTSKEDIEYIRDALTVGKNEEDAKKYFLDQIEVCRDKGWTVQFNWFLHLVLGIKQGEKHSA
T2 sequence (O00329 whole entry): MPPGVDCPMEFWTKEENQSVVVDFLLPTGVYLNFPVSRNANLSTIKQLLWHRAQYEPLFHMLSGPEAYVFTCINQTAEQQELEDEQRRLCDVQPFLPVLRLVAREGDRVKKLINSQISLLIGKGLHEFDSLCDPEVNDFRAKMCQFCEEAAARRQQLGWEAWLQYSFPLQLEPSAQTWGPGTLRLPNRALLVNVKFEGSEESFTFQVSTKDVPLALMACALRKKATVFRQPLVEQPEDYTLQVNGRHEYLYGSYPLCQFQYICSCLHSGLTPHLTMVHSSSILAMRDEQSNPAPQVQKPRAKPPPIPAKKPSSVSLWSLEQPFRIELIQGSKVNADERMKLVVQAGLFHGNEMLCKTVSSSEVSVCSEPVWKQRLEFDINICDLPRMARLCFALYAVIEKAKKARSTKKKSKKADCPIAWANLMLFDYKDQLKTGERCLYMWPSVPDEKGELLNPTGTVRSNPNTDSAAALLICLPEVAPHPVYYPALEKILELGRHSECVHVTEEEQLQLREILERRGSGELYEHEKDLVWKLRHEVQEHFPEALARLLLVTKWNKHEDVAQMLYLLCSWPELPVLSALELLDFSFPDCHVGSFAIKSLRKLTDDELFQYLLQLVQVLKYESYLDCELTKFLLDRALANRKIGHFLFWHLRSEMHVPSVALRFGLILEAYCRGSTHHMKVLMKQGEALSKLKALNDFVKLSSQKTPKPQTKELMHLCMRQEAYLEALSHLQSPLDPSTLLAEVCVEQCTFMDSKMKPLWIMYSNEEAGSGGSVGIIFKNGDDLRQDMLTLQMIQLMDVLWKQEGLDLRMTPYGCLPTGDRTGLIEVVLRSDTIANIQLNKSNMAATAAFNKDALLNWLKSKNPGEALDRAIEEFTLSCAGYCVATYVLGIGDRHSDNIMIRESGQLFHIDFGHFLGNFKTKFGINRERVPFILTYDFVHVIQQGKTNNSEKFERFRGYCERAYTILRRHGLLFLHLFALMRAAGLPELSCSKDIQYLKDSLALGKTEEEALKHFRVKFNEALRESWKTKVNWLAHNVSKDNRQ
T2 sequence (P27986 whole entry partner): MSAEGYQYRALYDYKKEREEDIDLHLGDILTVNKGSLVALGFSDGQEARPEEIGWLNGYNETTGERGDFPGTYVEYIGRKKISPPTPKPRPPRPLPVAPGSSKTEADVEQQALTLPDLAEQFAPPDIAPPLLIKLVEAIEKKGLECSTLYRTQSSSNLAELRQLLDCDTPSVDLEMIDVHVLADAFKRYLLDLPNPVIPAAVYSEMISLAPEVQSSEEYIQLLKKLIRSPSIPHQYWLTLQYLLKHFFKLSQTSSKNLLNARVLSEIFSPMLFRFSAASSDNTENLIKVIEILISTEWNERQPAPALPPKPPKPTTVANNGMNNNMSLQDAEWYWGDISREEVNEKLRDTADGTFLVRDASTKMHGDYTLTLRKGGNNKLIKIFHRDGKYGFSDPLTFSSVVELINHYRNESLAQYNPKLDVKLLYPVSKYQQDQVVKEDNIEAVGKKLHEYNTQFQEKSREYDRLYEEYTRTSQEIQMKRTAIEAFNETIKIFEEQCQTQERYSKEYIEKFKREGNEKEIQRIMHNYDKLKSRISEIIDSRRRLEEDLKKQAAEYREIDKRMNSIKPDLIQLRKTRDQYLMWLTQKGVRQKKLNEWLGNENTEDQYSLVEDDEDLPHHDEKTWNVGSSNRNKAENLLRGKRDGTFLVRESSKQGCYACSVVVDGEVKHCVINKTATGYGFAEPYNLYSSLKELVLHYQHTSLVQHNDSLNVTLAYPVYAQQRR
Chain of PI3Kδ (O00329 whole entry, species assumed, canonical isoform): as the sequence (O00329 whole entry) above
Chain of PI3Kδ (P27986 whole entry partner, species assumed, canonical isoform): as the sequence (P27986 whole entry partner) above

Take `CC(=O)Nc1nc(C)c(-c2cc3c(c([S@@+](C)[O-])c2)C(=O)N([C@@H](C)C2CC2)C3)s1` (racemic) [Compound 12, N-(5-(2-((S)-1-cyclopropylethyl)-7-(methylsulfinyl)-1-oxoisoindolin-5-yl)-4-methylthiazol-2-yl)acetamide]: the figures for the IC50 at PI3K gamma, on PI3Kγ and on PI3Kδ were 30 nM, 1.7 nM and 2080 nM, respectively. The same compound had a solubility at 2 h in data set [1] of 211 µM (≈ 88.1 µg/mL).

`CC(=O)Nc1nc(C)c(-c2cc3c(c([S@](C)(=N)=O)c2)C(=O)N([C@@H](C)C2CC2)C3)s1` (racemic) [Compound 15, N-(5-(2-((S)-1-cyclopropylethyl)-7-(S-methylsulfonimidoyl)-1-oxoisoindolin-5-yl)-4-methylthiazol-2-yl)acetamide]: the results for the IC50 at PI3K gamma, at PI3Kγ and at PI3Kδ were 130 nM, 1.9 nM and 784 nM, respectively. The compound further had a solubility at 2 h in data set [1] of 245 µM (≈ 106 µg/mL).

Turning to `CC(=O)Nc1nc(C)c(-c2cc3c(c(N4CCOCC4)n2)C(=O)N(C(C)C(F)(F)F)C3)s1` (stereo in doubt) [Compound 36, (R)-N-(4-methyl-5-(4-morpholino-3-oxo-2-(1,1,1-trifluoropropan-2-yl)-2,3-dihydro-1H-pyrrolo[3,4-c]pyridin-6-yl)thiazol-2-yl)acetamide], the IC50 on PI3K gamma was 3.3 nM; on PI3Kγ, 2.4 nM; on PI3Kδ, 1250 nM. Further, the solubility at 2 h in data set [1] came out at 32 µM (≈ 15 µg/mL).

In the case of `CC(=O)Nc1nc(C)c(-c2cc3c(c(P(C)(C)=O)c2)C(=O)N([C@@H](C)C2CC2)C3)s1` [Compound 1, (S)-N-(5-(2-(1-cyclopropylethyl)-7-(dimethylphosphoryl)-1-oxoisoindolin-5-yl)-4-methylthiazol-2-yl)acetamide], the IC50 on PI3K gamma is 315 nM; at PI3K delta it was > 1000 nM; on PI3Kγ it was 1.4 nM; at PI3Kδ, > 1000 nM.

In the case of `CC(=O)Nc1nc(C)c(-c2ccc3c(c2)CN([C@@H](C)C2CC2)C3=O)s1` [Compound 10, (S)-N-(5-(2-(1-cyclopropylethyl)-1-oxoisoindolin-5-yl)-4-methylthiazol-2-yl)acetamide], the IC50 was determined as 290 nM on PI3K gamma, 2.5 nM on PI3Kγ and 359 nM on PI3Kδ.

In the case of `CC(=O)Nc1nc(C)c(-c2cc3c(c(S(C)(=O)=O)n2)C(=O)N([C@@H](C)C2CC2)C3)s1` [Compound 19, (S)-N-(5-(2-(1-cyclopropylethyl)-4-(methylsulfonyl)-3-oxo-2,3-dihydro-1H-pyrrolo[3,4-c]pyridin-6-yl)-4-methylthiazol-2-yl)acetamide], the IC50 is 28 nM at PI3K gamma, 1.6 nM at PI3Kγ and > 1000 nM at PI3Kδ.

Turning to `COc1nc(-c2sc(NC(C)=O)nc2C)cc2c1C(=O)N([C@@H](C)C1CC1)C2` [Compound 22, (S)-N-(5-(2-(1-cyclopropylethyl)-4-methoxy-3-oxo-2,3-dihydro-1H-pyrrolo[3,4-c]pyridin-6-yl)-4-methylthiazol-2-yl)acetamide], the IC50 is 2.5 nM on PI3K gamma, 2280 nM at PI3K delta, 1.7 nM on PI3Kγ and > 1000 nM at PI3Kδ. The same compound had a solubility at 2 h in data set [1] of 3.5 µM (≈ 1.35 µg/mL).

In the case of `CC(=O)Nc1nc(C)c(-c2cc3c(c(NS(=O)(=O)C4CC4)n2)C(=O)N([C@@H](C)C2CC2)C3)s1` [Compound 24, (S)-N-(5-(4-(cyclopropanesulfonamido)-2-(1-cyclopropylethyl)-3-oxo-2,3-dihydro-1H-pyrrolo[3,4-c]pyridin-6-yl)-4-methylthiazol-2-yl)acetamide], the IC50 on PI3K gamma was 2.2 nM; at PI3K delta, 1420 nM; on PI3Kγ, 1.5 nM; at PI3Kδ, 794 nM. Also, in data set [1], the solubility at 2 h came out at 83 µM (≈ 39.5 µg/mL).

Consider `CC(=O)Nc1nc(C)c(-c2cc3c(c(N4CCOCC4)n2)C(=O)N([C@H](C)C2CC2)C3)s1` [Compound 35, (R)-N-(5-(2-(1-cyclopropylethyl)-4-morpholino-3-oxo-2,3-dihydro-1H-pyrrolo[3,4-c]pyridin-6-yl)-4-methylthiazol-2-yl)acetamide], for which the IC50 was 3.2 nM on PI3K gamma, > 10000 nM on PI3Kβ, 4140 nM on PI3Kα and 1330 nM on PI3Kδ. Besides, the solubility at 2 h in data set [1] amounted to 23 µM (≈ 10.2 µg/mL).

Consider `CC(=O)Nc1nc(C)c(-c2cc3c(c(NC(C)=O)n2)C(=O)N([C@@H](C)C2CC2)C3)s1` [Compound 44, (S)-N-(5-(4-acetamido-2-(1-cyclopropylethyl)-3-oxo-2,3-dihydro-M-pyrrolo[3,4-c]pyridin-6-yl)-4-methylthiazol-2-yl)acetamide], for which the results for the IC50 at PI3K gamma, on PI3Kγ and at PI3Kδ were 5.1 nM, 0.87 nM and > 1000 nM, respectively. Further, in data set [1], the concentration in solution (solubility at 2 h) was 1.2 µM (≈ 0.496 µg/mL).

The values are drawn from patent publication US11542262B2, “Phosphatidylinositol 3-kinase inhibitors” (NANJING ZHENGXIANG PHARMACEUTICALS CO., LTD., priority 2019, dated 2023).
